{
  "source": "the NIST ThermoML archive (doi:10.1021/je400755x)",
  "settings": "Liquid, Closed cell (Static) method",
  "note": "± gives the expanded uncertainty stated by the source.",
  "data": [
    {"smiles": "C=CCCC=C", "note": "[1,5-hexadiene]", "values": [
      {"measurement": "vapor or sublimation pressure", "setting": "313.05 K", "result": "56 ± 20", "unit": "kPa"},
      {"measurement": "vapor or sublimation pressure", "setting": "322.92 K", "result": "78 ± 20", "unit": "kPa"},
      {"measurement": "vapor or sublimation pressure", "setting": "333 K", "result": "109 ± 20", "unit": "kPa"},
      {"measurement": "vapor or sublimation pressure", "setting": "342.76 K", "result": "147 ± 20", "unit": "kPa"},
      {"measurement": "vapor or sublimation pressure", "setting": "352.84 K", "result": "197 ± 20", "unit": "kPa"},
      {"measurement": "vapor or sublimation pressure", "setting": "362.75 K", "result": "256 ± 20", "unit": "kPa"},
      {"measurement": "vapor or sublimation pressure", "setting": "369.36 K", "result": "303 ± 20", "unit": "kPa"}
    ]},
    {"smiles": "C=CCCl", "note": "[3-chloro-1-propene]", "values": [
      {"measurement": "vapor or sublimation pressure", "setting": "298.88 K", "result": "55 ± 20", "unit": "kPa"},
      {"measurement": "vapor or sublimation pressure", "setting": "308.19 K", "result": "75 ± 20", "unit": "kPa"},
      {"measurement": "vapor or sublimation pressure", "setting": "313.35 K", "result": "90 ± 20", "unit": "kPa"},
      {"measurement": "vapor or sublimation pressure", "setting": "323.13 K", "result": "125 ± 20", "unit": "kPa"},
      {"measurement": "vapor or sublimation pressure", "setting": "323.19 K", "result": "126 ± 20", "unit": "kPa"},
      {"measurement": "vapor or sublimation pressure", "setting": "323.75 K", "result": "126 ± 20", "unit": "kPa"},
      {"measurement": "vapor or sublimation pressure", "setting": "333.47 K", "result": "173 ± 20", "unit": "kPa"},
      {"measurement": "vapor or sublimation pressure", "setting": "343.12 K", "result": "228 ± 20", "unit": "kPa"},
      {"measurement": "vapor or sublimation pressure", "setting": "343.83 K", "result": "233 ± 20", "unit": "kPa"},
      {"measurement": "vapor or sublimation pressure", "setting": "352.3 K", "result": "294 ± 20", "unit": "kPa"},
      {"measurement": "vapor or sublimation pressure", "setting": "353.05 K", "result": "301 ± 20", "unit": "kPa"},
      {"measurement": "vapor or sublimation pressure", "setting": "363.03 K", "result": "389 ± 20", "unit": "kPa"},
      {"measurement": "vapor or sublimation pressure", "setting": "369.15 K", "result": "454 ± 20", "unit": "kPa"}
    ]}
  ]
}
